Data on 20 compounds can be found in US11643388B2, “Inhibitors of alpha 2 beta 1 integrin and methods of use thereof” (The Regents of the University of California, priority 2020, dated 2023).

Bounds are passed on as bounds.

In data set [1] the target is T1, α2β1 (Homo sapiens, UniProt P05556+P17301). The data set can be described thus: α2β1 cell adhesion assay. The class given is cell-based.
Data set [2] concerns the target T1, α2β1. The data set can be described thus: α2β1 cell adhesion. Format: cell-based.
The nature of a further data set: Caco-2 permeability. Format: in vitro ADME. As to conditions: human; for Papp A→B: A-B direction; for Papp B→A: B-A direction. For orientation: Passage across Caco-2 layers is used to estimate intestinal permeability.
For another data set, the target named is α4β1 (Homo sapiens, UniProt P05556+P13612). Kind of data set: α4β1 cell adhesion. The class given is cell-based.
Sequence of α4β1 (P13612 34-1032): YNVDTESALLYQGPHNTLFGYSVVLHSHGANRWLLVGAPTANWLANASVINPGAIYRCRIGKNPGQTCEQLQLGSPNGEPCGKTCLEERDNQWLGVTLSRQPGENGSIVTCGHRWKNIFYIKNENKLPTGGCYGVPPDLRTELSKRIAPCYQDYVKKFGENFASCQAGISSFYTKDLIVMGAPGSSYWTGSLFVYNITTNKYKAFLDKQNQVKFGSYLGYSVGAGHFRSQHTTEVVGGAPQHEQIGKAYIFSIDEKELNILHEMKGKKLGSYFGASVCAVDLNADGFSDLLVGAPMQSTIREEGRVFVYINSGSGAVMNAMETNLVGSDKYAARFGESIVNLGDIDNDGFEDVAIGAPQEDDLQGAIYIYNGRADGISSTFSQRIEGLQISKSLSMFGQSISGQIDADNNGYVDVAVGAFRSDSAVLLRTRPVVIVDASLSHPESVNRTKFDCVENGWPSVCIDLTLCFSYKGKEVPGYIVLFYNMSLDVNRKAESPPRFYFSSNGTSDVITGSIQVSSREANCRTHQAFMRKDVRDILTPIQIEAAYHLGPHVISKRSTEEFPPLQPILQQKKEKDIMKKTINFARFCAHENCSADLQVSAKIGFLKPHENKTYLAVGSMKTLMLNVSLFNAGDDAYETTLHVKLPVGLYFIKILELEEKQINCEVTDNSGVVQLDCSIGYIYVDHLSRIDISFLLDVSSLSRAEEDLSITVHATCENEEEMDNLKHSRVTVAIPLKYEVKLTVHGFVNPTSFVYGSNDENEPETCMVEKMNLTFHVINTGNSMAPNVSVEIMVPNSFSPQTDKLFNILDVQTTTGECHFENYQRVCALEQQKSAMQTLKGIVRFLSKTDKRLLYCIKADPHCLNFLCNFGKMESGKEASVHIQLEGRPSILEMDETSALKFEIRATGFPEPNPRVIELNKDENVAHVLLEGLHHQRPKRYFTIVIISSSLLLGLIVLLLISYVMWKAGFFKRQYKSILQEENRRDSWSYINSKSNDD
Sequence of α4β1 (P05556 21-798): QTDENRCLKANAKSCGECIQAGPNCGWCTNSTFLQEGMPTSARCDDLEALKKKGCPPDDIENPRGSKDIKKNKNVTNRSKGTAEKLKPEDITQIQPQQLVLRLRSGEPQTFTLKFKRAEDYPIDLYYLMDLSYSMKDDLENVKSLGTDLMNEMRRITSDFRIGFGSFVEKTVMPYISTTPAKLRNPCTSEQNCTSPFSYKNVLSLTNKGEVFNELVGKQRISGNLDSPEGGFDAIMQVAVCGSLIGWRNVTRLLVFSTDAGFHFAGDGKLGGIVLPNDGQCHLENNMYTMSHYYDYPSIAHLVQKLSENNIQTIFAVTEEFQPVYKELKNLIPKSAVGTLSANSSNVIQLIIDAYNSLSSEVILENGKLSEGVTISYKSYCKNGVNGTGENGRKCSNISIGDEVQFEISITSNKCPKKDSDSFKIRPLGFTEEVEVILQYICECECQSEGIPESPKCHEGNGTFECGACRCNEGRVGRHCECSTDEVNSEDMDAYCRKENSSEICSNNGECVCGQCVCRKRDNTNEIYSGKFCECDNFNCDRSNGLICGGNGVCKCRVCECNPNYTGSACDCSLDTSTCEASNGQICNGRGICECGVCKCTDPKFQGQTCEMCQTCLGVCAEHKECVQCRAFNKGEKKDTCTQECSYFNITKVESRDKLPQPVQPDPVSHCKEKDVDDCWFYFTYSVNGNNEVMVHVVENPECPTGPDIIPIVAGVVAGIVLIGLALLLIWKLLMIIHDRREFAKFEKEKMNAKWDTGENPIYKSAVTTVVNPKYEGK

T1 sequence (P17301 30-1181): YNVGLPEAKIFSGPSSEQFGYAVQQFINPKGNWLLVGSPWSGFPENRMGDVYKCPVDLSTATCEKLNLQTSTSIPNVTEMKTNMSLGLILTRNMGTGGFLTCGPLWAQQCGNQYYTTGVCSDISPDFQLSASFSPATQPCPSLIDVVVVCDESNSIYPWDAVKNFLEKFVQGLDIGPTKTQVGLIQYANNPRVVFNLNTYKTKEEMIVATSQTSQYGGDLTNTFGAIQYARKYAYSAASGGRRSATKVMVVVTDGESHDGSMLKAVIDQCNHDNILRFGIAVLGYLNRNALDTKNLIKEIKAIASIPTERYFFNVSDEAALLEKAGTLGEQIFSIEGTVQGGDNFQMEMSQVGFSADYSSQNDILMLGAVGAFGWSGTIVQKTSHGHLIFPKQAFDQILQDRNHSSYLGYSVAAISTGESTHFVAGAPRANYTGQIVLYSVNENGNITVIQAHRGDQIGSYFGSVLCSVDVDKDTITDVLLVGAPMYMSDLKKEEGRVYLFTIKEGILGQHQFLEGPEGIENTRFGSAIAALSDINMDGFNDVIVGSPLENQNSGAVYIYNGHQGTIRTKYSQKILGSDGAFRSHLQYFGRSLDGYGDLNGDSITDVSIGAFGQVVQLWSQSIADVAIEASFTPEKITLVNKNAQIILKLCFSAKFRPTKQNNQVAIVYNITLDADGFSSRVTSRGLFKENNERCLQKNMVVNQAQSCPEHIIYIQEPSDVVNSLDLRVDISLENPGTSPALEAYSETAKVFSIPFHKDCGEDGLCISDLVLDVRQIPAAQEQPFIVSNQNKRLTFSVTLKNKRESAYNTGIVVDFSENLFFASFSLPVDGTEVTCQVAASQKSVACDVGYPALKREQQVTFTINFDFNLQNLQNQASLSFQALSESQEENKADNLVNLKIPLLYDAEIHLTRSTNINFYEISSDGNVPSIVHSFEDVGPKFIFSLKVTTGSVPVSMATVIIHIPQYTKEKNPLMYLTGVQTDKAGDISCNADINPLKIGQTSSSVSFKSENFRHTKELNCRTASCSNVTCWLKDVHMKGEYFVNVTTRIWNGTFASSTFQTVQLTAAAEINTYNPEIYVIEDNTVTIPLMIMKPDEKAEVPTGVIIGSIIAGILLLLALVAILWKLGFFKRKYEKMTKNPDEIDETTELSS
T1 sequence (P05556 21-798): as the sequence (P05556 21-798) above

Take `CN(Cc1ccccc1)C(=O)NC[C@H](NC(=O)c1c(Cl)cc2c(c1Cl)CCN(CC1CC1)C2=O)C(=O)O` [SU15210-0251, (2S)-3-[[benzyl(methyl)carbamoyl]amino]-2-[[5,7-dichloro-2-(cyclopropylmethyl)-1-oxo-3,4-dihydroisoquinoline-6-carbonyl]amino]propanoic Acid]: at α2β1 [1], the IC50 (in general, the point on the concentration scale where inhibition reaches its midpoint) lay in the range of 1000 to 5000 nM. The same measure, in the same setting: with `CN(Cc1ccccc1)C(=O)NC[C@H](NC(=O)c1c(Cl)cc2c(c1Cl)CCN(CC#CC1CC1)C2=O)C(=O)O` [SU15210-0265, (S)-3-(3-benzyl-3-methylureido)-2-(5,7-dichloro-2-(3-cyclopropylprop-2-ynyl)-1-oxo-1,2,3,4-tetrahydroisoquinoline-6-carboxamido)propanoic Acid] the figure was over 5000 nM. Still for that read-out and setting: then `O=C(NC[C@H](NC(=O)c1c(Cl)cc(C(=O)NCc2cccc(C(F)(F)F)c2)cc1Cl)C(=O)O)N[C@@H]1CCc2ccccc21` [SU15210-0293, (S)-2-(2,6-dichloro-4-(3-(trifluoromethyl)benzylcarbamoyl)benzamido)-3-(3-((R)-2,3-dihydro-1H-inden-1-yl)ureido)propanoic Acid], with under 500 nM; and `CCOC(=O)[C@H](CNC(=O)N[C@@H]1CCc2ccccc21)NC(=O)c1c(Cl)cc(C(=O)NCc2cccc(Cl)c2)cc1Cl` [SU15210-0280, (S)-ethyl 2-(2,6-dichloro-4-(3-chlorobenzylcarbamoyl)benzamido)-3-(3-((R)-2,3-dihydro-1H-inden-1-yl)ureido)propanoate], with 1000 to 5000 nM; and `CN(Cc1ccccc1)C(=O)NC[C@H](NC(=O)c1c(Cl)cc2c(c1Cl)CCN(Cc1cccc(Cl)c1)C2=O)C(=O)O` [SU15210-0242-01, (S)-3-(3-benzyl-3-methylureido)-2-(5,7-dichloro-2-(3-chlorobenzyl)-1-oxo-1,2,3,4-tetrahydroisoquinoline-6-carboxamido)propanoic Acid], with under 500 nM.

In the case of `O=C(NC[C@H](NC(=O)c1c(Cl)cc(C(=O)NCc2cccc(F)c2)cc1Cl)C(=O)O)N[C@@H]1CCc2ccccc21` [SU15210-0289, (S)-2-(2,6-dichloro-4-(3-fluorobenzylcarbamoyl)benzamido)-3-(3-((R)-2,3-dihydro-1H-inden-1-yl)ureido)propanoic Acid], on α2β1 [1], the IC50 was under 500 nM. As to `CN(Cc1ccccc1)C(=O)NC[C@H](NC(=O)c1c(Cl)cc(C(=O)NCc2cccc(O)c2)cc1Cl)C(=O)O` [SU15210-0186-01, (S)-3-(3-benzyl-3-methylureido)-2-(2,6-dichloro-4-(3-hydroxybenzylcarbamoyl)benzamido)propanoic Acid], on α2β1 [2], the IC50 was under 500 nM. For the same compound, in the data set “Caco-2 permeability”, the Papp A→B (usually how fast a substance crosses the layer from the apical side) stood at 2.2 ×10⁻⁶ cm/s and the Papp B→A (as a rule, how fast a substance crosses the layer from the basolateral side) came out at 1.5 ×10⁻⁶ cm/s.

Regarding `O=C(NC[C@H](NC(=O)c1c(Cl)cc(C(=O)NCc2ccc(Cl)c(Cl)c2)cc1Cl)C(=O)O)N[C@@H]1CCc2ccccc21` [SU15210-0291, (S)-2-(2,6-dichloro-4-(3,4-dichlorobenzylcarbamoyl)benzamido)-3-(3-((R)-2,3-dihydro-1H-inden-1-yl)ureido)propanoic Acid], on α2β1 [1], the IC50 is under 500 nM. At α2β1 [1], `O=C(NC[C@H](NC(=O)c1c(Cl)cc2c(c1Cl)CCN(Cc1ccc(Cl)cc1)C2=O)C(=O)O)N[C@@H]1CCc2ccccc21` [SU15210-0244-01] came in with an IC50 of over 5000 nM.

`CN(Cc1ccccc1)C(=O)NC[C@H](NC(=O)c1c(Cl)cccc1Cl)C(=O)O` [SU15210-0167-01]: the IC50 at α4β1 is 83900 nM; against α2β1 [2], under 500 nM. Regarding `O=C(NC[C@H](NC(=O)c1c(Cl)ccc(NCCCc2ccccc2)c1Cl)C(=O)O)N[C@@H]1CCc2ccccc21` [SU15210-0098-01, (S)-2-(2,6-dichloro-3-(3-phenylpropylamino)benzamido)-3-(3-((R)-2,3-dihydro-1H-inden-1-yl)ureido)propanoic Acid], the concentration for half-maximal inhibition (IC50) was 32300 nM at α4β1 and under 500 nM against α2β1 [2]. Turning to `O=C(NC[C@H](NC(=O)c1c(Cl)cc2c(c1Cl)CCN(Cc1cccc(Cl)c1)C2=O)C(=O)O)N[C@@H]1CCc2ccccc21` [SU15210-0243-01, (2S)-2-[[5,7-dichloro-2-[(3-chlorophenyl)methyl]-1-oxo-3,4-dihydroisoquinoline-6-carbonyl]amino]-3-[[(1R)-indan-1-yl]carbamoylamino]propanoic Acid], the IC50 against α2β1 [1] is over 5000 nM. As for `CN(Cc1ccccc1)C(=O)NC[C@H](NC(=O)c1c(Cl)cc2c(c1Cl)CCN(Cc1ccccc1)C2=O)C(=O)O` [SU15210-0245-01, (2S)-2-[(2-benzyl-5,7-dichloro-1-oxo-3,4-dihydroisoquinoline-6-carbonyl)amino]-3-[[benzyl(methyl)carbamoyl]amino]propanoic Acid], on α2β1 [1], the IC50 was over 5000 nM. Compound `N#Cc1cccc(CNC(=O)c2cc(Cl)c(C(=O)N[C@@H](CNC(=O)N[C@@H]3CCc4ccccc43)C(=O)O)c(Cl)c2)c1` [SU15210-0292, (S)-2-(2,6-dichloro-4-(3-cyanobenzylcarbamoyl)benzamido)-3-(3-((R)-2,3-dihydro-1H-inden-1-yl)ureido)propanoic Acid] returned an IC50 against α2β1 [1] of under 500 nM.

`COc1cccc(CNC(=O)c2cc(Cl)c(C(=O)N[C@@H](CNC(=O)N[C@@H]3CCc4ccccc43)C(=O)O)c(Cl)c2)c1` [SU15210-0290-01, (S)-2-(2,6-dichloro-4-(3-methoxybenzylcarbamoyl)benzamido)-3-(3-((R)-2,3-dihydro-1H-inden-1-yl)ureido)propanoic Acid]: the IC50 at α2β1 [1] was under 500 nM. On to `O=C(CCc1ccccc1)Nc1ccc(Cl)c(C(=O)N[C@@H](CNC(=O)N[C@@H]2CCc3ccccc32)C(=O)O)c1Cl` [SU15210-0124-01, (S)-2-(2,6-dichloro-3-(3-phenylpropanamido)benzamido)-3-(3-((R)-2,3-dihydro-1H-inden-1-yl)ureido)propanoic Acid], for which the values for the IC50 on α4β1 and at α2β1 [2] were 21000 nM and under 500 nM, respectively. `O=C(NC[C@H](NC(=O)c1c(Cl)cc(C(=O)NCc2cccc(Cl)c2)cc1Cl)C(=O)O)N[C@@H]1CCc2cc(Cl)ccc21` [SU15210-0294, (S)-3-(3-((R)-5-chloro-2,3-dihydro-1H-inden-1-yl)ureido)-2-(2,6-dichloro-4-(3-chlorobenzylcarbamoyl)benzamido)propanoic Acid] had an IC50 against α2β1 [1] of 500 to 1000 nM. With `CCOC(=O)[C@H](CNC(=O)N(C)Cc1ccccc1)NC(=O)c1c(Cl)cc2c(c1Cl)CCN(Cc1cccc(Cl)c1)C2=O` [SU15210-0270-01, (S)-ethyl 3-(3-benzyl-3-methylureido)-2-(5,7-dichloro-2-(3-chlorobenzyl)-1-oxo-1,2,3,4-tetrahydroisoquinoline-6-carboxamido)propanoate], the IC50 against α2β1 [1] is 500 to 1000 nM. The compound `O=C(NC[C@H](NC(=O)c1c(Cl)cc(C(=O)NCc2cccc(Cl)c2)cc1Cl)C(=O)O)N[C@@H]1CCc2ccccc21` [SU15210-0185-01, (S)-2-(2,6-dichloro-4-(3-chlorobenzylcarbamoyl)benzamido)-3-(3-((R)-2,3-dihydro-1H-inden-1-yl)ureido)propanoic Acid] returned a 50% inhibitory concentration (IC50) at α2β1 [2] of under 500 nM. In addition, in the data set “Caco-2 permeability”, the Papp A→B came to 2.2 ×10⁻⁶ cm/s and the Papp B→A was 5.53 ×10⁻⁶ cm/s. On to `O=C(NC[C@H](NC(=O)c1c(Cl)cc(COCc2ccccc2)cc1Cl)C(=O)O)N[C@@H]1CCc2ccccc21` [SU15210-0189-01, (S)-2-(4-(benzyloxymethyl)-2,6-dichlorobenzamido)-3-(3-((R)-2,3-dihydro-1H-inden-1-yl)ureido)propanoic Acid], for which the IC50 against α2β1 [2] lay within 500 to 1000 nM.
